Values joined by “and” are separate entries in the source; they are usually repeats but may differ in a detail not shown here. Equal values may be shown once.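 Cultured in 96-well plates, cells were exposed to test compound for 48 hours across five concentrations. GI50 = concentration required for 50% inhibition of growth. The concentration for full growth arrest is given as TGI.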
Assays:
Assay in all cases: DTP human tumour cell line panel, 48 h
CAKI-1 renal = system: CAKI-1 renal
HCT-116 colon = system: HCT-116 colon
K-562 leukemia = system: K-562 leukemia
NCI-H522 lung = system: NCI-H522 lung
OVCAR-3 ovarian = system: OVCAR-3 ovarian
OVCAR-4 ovarian = system: OVCAR-4 ovarian
SK-MEL-28 melanoma = system: SK-MEL-28 melanoma
SNB-19 CNS = system: SNB-19 CNS
UACC-257 melanoma = system: UACC-257 melanoma
NCI-H226 lung = system: NCI-H226 lung

Compound	TGI (CAKI-1 renal) [µM]	TGI (HCT-116 colon)	TGI (K-562 leukemia) [µM]	TGI (NCI-H522 lung)	TGI (OVCAR-3 ovarian)	TGI (OVCAR-4 ovarian) [µM]	TGI (SK-MEL-28 melanoma) [µM]	TGI (SNB-19 CNS) [µM]	TGI (UACC-257 melanoma)	TGI (NCI-H226 lung)	GI50 (CAKI-1 renal) [µM]	GI50 (HCT-116 colon) [µM]	GI50 (NCI-H226 lung) [µM]	GI50 (NCI-H522 lung) [µM]	GI50 (OVCAR-3 ovarian) [µM]	GI50 (OVCAR-4 ovarian) [µM]	GI50 (SNB-19 CNS) [µM]	GI50 (SK-MEL-28 melanoma) [µM]	GI50 (K-562 leukemia) [µM]	GI50 (UACC-257 melanoma) [µM]
Cc1ccccc1C(=O)N1CCN(C(=O)c2ccccc2C)CC1	> 100	> 100 µM	> 100	> 100 µM	> 100 µM	> 100	> 100	> 100	> 100 µM											
c1ccc(N2N=C(c3ccco3)CC2c2ccco2)cc1 (centres undefined)		> 100 µM	> 100	> 100 µM	> 100 µM	> 100	> 100	> 100		> 100 µM										
CSC(=NCCc1c[nH]c2ccccc12)NC#N		> 100 µM	> 100		> 100 µM	> 100	> 100	> 100	> 100 µM	> 100 µM										
CC(=O)OCC1OC(N2C(=O)C(=O)c3ccccc32)C(OC(C)=O)C(OC(C)=O)C1OC(C)=O (centres undefined)	> 100		> 100	> 100 µM	> 100 µM	> 100	> 100	> 100	> 100 µM	> 100 µM										
COc1ccc(C(=O)c2ccc([As]=O)cc2)cc1 (centres undefined)	0.201	0.154 µM		0.254 µM	0.114 µM	0.182		0.236		0.459 µM	0.064	0.0387	0.169	0.0902	0.0345	0.0454	0.0932			
CCCCN(CCCC)C(=O)/C(CC(=O)c1cccc2ccccc12)=N\NC(=O)c1cc2ccccc2cc1O		28 µM			53.3 µM	70.5	> 100	> 100	52.8 µM	44.7 µM										
CC(=O)/C(=C/c1ccccc1F)C(=O)c1ccccc1	> 100	> 100 µM		> 100 µM	58.8 µM	> 100	> 100	> 100	91.3 µM	> 100 µM										
CC(C)(C)c1cc(C=C(C#N)C#N)cc(C(C)(C)C)c1O		1.03 µM and 3.81 µM	> 354	2.86 µM and 1.61 µM	29.2 µM and 3.85 µM	> 354	43.6	115	0.898 µM and 3.27 µM	1.51 µM and 14.8 µM			0.371	0.219	0.456	0.523	0.271	0.778		
CCNC(=O)COc1ccc(Cl)cc1Cl	> 100	> 100 µM	> 100	> 100 µM	> 100 µM		> 100	> 100	> 100 µM	> 100 µM										
Oc1ccccc1-c1nn(CNc2ccccc2Cl)c(=S)o1	> 100	> 100 µM	> 100	> 100 µM	> 100 µM			> 100	> 100 µM	> 100 µM	> 100	29.8	> 100	> 100	89.7		> 100		> 100	> 100

Reference: PubChem BioAssay (NCI)
